# Measurements published in ChEMBL document CHEMBL3763030, “Structure-Activity Relationship of Azaindole-Based Glucokinase Activators” (J Med Chem, 2016).
# Test: Stability in C57BL/6J mouse microsomes
# Format: ADME, Microsome
row,SMILES,Stability
1,C[S+]([O-])c1ccc(C(CC2CCCC2)c2cc3cccnc3[nH]2)cc1Cl (stereo in doubt; 16a),50%
2,C[S+]([O-])c1ccc(C(CC2CCCC2)c2cc3cccnc3[nH]2)cc1Cl (stereo in doubt; 16c),40%
3,CS(=O)(=O)c1ccc([C@@H](C[C@H]2CCC(=O)C2)C(=O)Nc2cnccn2)cc1Cl [PIRAGLIATIN],85%
